Measurements taken from patent US12447156B2, “Treating progressive familial intrahepatic cholestasis (PFIC) with IBAT inhibitors” (ALBIREO AB, priority 2020, dated 2025).
Entries after “also recorded” stand apart in the source; their conditions may differ.

How the values were obtained:
[1] = tested on: children with PFIC1 or PFIC2; assay: PEDFIC 1: safety (treatment-emergent adverse events)
Description: The primary safety analysis for PEDFIC 1 was based on the incidence of treatment-emergent adverse events (TEAEs). TEAEs were categorized by causality, severity, and seriousness for odevixibat and placebo. Other safety assessments included physical examinations, vital signs, laboratory tests, and abdominal ultrasounds (liver and spleen).
Secondary endpoints, exploratory endpoints, subgroup analyses, and safety data were summarized descriptively. Adverse events (AEs) were coded using Medical Dictionary for Regulatory Activities version 23.0.

patients with PFIC = assay: PEDFIC 2 open-label extension trial, interim analysis: safety (TEAEs); assay type: in vivo, human
Method: Study Design • This phase 3 study included a screening period (for newly enrolled patients [i.e., cohort 2] only) and a 72-week treatment period (FIG. 9) in which all patients received oral, once-daily odevixibat 120 μg/kg. • Patients returned to the clinic 4 and 12 weeks after the first dose of odevixibat and then approximately every 10 to 12 weeks thereafter. • Following the 72-week treatment period, patients either enrolled in an optional extension for continued treatment or returned for a follow-up visit 4 weeks after ending study drug. Outcomes, Assessments, and Statistical Analysis • The primary efficacy outcomes were to assess the effects of odevixibat on sBAs and pruritus, including mean changes and proportion of patients meeting response criteria. • sBA responders were defined as patients who achieved a normalization of sBAs or reduction of ≥70%. • Pruritus responders were defined as patients who achieved a ≥1-point drop on the pruritus assessment. • Secondary outcomes included characterizing the long-term safety and tolerability of odevixibat, as well as the effects of odevixibat on growth, biliary diversion and/or liver transplantation, and markers of cholestasis and liver disease. • For the P1O and PIP groups, there were 2 baselines (PEDFIC 1 baseline and PEDFIC 2 baseline); for those in cohort 2, baseline refers to the value prior to initiation of odevixibat in PEDFIC 2. • This interim analysis focuses on data collected after 24 weeks of treatment in PEDFIC 2. • T tests were used to calculate P values for primary outcomes in the P1O group only; other outcomes were summarized descriptively.

[2] = PEDFIC 1, 120 μg/kg/day, n = 19

Structure (SMILES): CCCCC1(CCCC)CN(c2ccccc2)c2cc(SC)c(OCC(=O)N[C@@H](C(=O)N[C@@H](CC)C(=O)O)c3ccc(O)cc3)cc2S(=O)(=O)N1 [Odevixibat, 1,1-dioxo-3,3-dibutyl-5-phenyl-7-methylthio-8-(N-{(R)-α-[N-((S)-1-carboxypropyl)carbamoyl]-4-hydroxybenzyl}carbamoylmethoxy)-2,3,4,5-tetrahydro-1,2,5-benzothiadiazepine]
- Any TEAE, patients ([1]; PEDFIC 1, 40 μg/kg/day, n = 23): 19 (82.6) n (%)
- Drug-related TEAE, patients ([1]; PEDFIC 1, 40 μg/kg/day, n = 23): 7 (30.4) n (%)
- Drug-related TEAE: ALT increased, patients ([1]; PEDFIC 1, 40 μg/kg/day, n = 23): 2 (8.7) n (%)
- Drug-related TEAE: AST increased, patients ([1]; PEDFIC 1, 40 μg/kg/day, n = 23): 2 (8.7) n (%)
- Drug-related TEAE: Blood bilirubin increased, patients ([1]; PEDFIC 1, 40 μg/kg/day, n = 23): 2 (8.7) n (%)
- Drug-related TEAE: Diarrhea/frequent bowel movements, patients ([1]; PEDFIC 1, 40 μg/kg/day, n = 23): 2 (8.7) n (%)
- Liver-related TEAEs, patients ([1]; PEDFIC 1, 40 μg/kg/day, n = 23): 5 (21.7) n (%)
- Mild TEAE, patients ([1]; PEDFIC 1, 40 μg/kg/day, n = 23): 11 (47.8) n (%)
- Moderate TEAE, patients ([1]; PEDFIC 1, 40 μg/kg/day, n = 23): 7 (30.4) n (%)
- Serious TEAEs, patients ([1]; PEDFIC 1, 40 μg/kg/day, n = 23): 0 n (%)
- Severe TEAE, patients ([1]; PEDFIC 1, 40 μg/kg/day, n = 23): 1 (4.3) n (%)
- TEAEs leading to discontinuation, patients ([1]; PEDFIC 1, 40 μg/kg/day, n = 23): 0 n (%)
- Any TEAE, patients [1, 2]: 16 (84.2) n (%)
- Drug-related TEAE, patients [1, 2]: 7 (36.8) n (%)
- Drug-related TEAE: ALT increased, patients [1, 2]: 2 (10.5) n (%)
- Drug-related TEAE: AST increased, patients [1, 2]: 1 (5.3) n (%)
- Drug-related TEAE: Blood bilirubin increased, patients [1, 2]: 2 (10.5) n (%)
- Drug-related TEAE: Diarrhea/frequent bowel movements, patients [1, 2]: 2 (10.5) n (%)
- Liver-related TEAEs, patients [1, 2]: 6 (31.6) n (%)
- Mild TEAE, patients [1, 2]: 8 (42.1) n (%)
- Moderate TEAE, patients [1, 2]: 6 (31.6) n (%)
- Serious TEAEs, patients [1, 2]: 3 (15.8) n (%)
- Severe TEAE, patients [1, 2]: 2 (10.5) n (%)
- TEAEs leading to discontinuation, patients [1, 2]: 1 (5.3) n (%)
- deaths, treatment-related serious AEs, TEAEs related to liver decompensation ([1]; PEDFIC 1, 24 weeks): No deaths, treatment-related serious AEs, or TEAEs related to liver decompensation occurred; also recorded: no deaths or treatment-related serious adverse events
- tolerability ([1]; PEDFIC 1, 40 and 120 μg/kg/day over 24 weeks): well tolerated
- patients with at least one TEAE ([1]; PEDFIC 1, all doses (35 of 42 patients)): 83%
- Any TEAE, patients ([1]; PEDFIC 1, all doses, n = 42): 35 (83.3) n (%)
- Drug-related TEAE, patients ([1]; PEDFIC 1, all doses, n = 42): 14 (33.3) n (%)
- Drug-related TEAE: ALT increased, patients ([1]; PEDFIC 1, all doses, n = 42): 4 (9.5) n (%)
- Drug-related TEAE: AST increased, patients ([1]; PEDFIC 1, all doses, n = 42): 3 (7.1) n (%)
- Drug-related TEAE: Blood bilirubin increased, patients ([1]; PEDFIC 1, all doses, n = 42): 4 (9.5) n (%)
- Drug-related TEAE: Diarrhea/frequent bowel movements, patients ([1]; PEDFIC 1, all doses, n = 42): 4 (9.5) n (%)
- Liver-related TEAEs, patients ([1]; PEDFIC 1, all doses, n = 42): 11 (26.2) n (%)
- Mild TEAE, patients ([1]; PEDFIC 1, all doses, n = 42): 19 (45.2) n (%)
- Moderate TEAE, patients ([1]; PEDFIC 1, all doses, n = 42): 13 (31.0) n (%)
- Serious TEAEs, patients ([1]; PEDFIC 1, all doses, n = 42): 3 (7.1) n (%)
- Severe TEAE, patients ([1]; PEDFIC 1, all doses, n = 42): 3 (7.1) n (%)
- TEAEs leading to discontinuation, patients ([1]; PEDFIC 1, all doses, n = 42): 1 (2.4) n (%)
- TEAE vomiting ([1]; PEDFIC 1, all doses, placebo 0%): 17%
- TEAE ALT increase ([1]; PEDFIC 1, all doses, placebo 5%): 14%
- TEAE serum bilirubin increase ([1]; PEDFIC 1, all doses, placebo 10%): 12%
- TEAE upper respiratory tract infection ([1]; PEDFIC 1, all doses, placebo 15%): 19%
- TEAEs considered related to study drug by the investigator ([1]; PEDFIC 1, all doses, placebo 15.0%): 33.3%
- TEAE fever ([1]; PEDFIC 1, all doses, placebo 25%): 29%
- treatment-related AEs of diarrhea or frequent bowel movement ([1]; PEDFIC 1, odevixibat-treated patients): 9.5%
- fat-soluble vitamin deficiencies refractory to clinically recommended vitamin supplementation (patients with PFIC; PEDFIC 2): no new or worsening fat-soluble vitamin deficiencies
- Any TEAE, patients (patients with PFIC; PEDFIC 2, Cohort 2, n = 16): 8 (50.0) n (%)
- Drug-related TEAE by preferred term: Blood bilirubin increased (patients with PFIC; PEDFIC 2, Cohort 2, n = 16): 3 (18.8) n (%)
- Drug-related TEAE by preferred term: Cough (patients with PFIC; PEDFIC 2, Cohort 2, n = 16): 0 n (%)
- Drug-related TEAE by preferred term: Diarrhea (patients with PFIC; PEDFIC 2, Cohort 2, n = 16): 0 n (%)
- Drug-related TEAE by preferred term: INR increased (patients with PFIC; PEDFIC 2, Cohort 2, n = 16): 2 (12.5) n (%)
- Drug-related TEAE by preferred term: Pruritus (patients with PFIC; PEDFIC 2, Cohort 2, n = 16): 0 n (%)
- Drug-related TEAE by preferred term: Pyrexia (patients with PFIC; PEDFIC 2, Cohort 2, n = 16): 2 (12.5) n (%)
- Drug-related TEAE by preferred term: URTI (patients with PFIC; PEDFIC 2, Cohort 2, n = 16): 0 n (%)
- Drug-related TEAEs, patients (patients with PFIC; PEDFIC 2, Cohort 2, n = 16): 5 (31.3) n (%)
- Mild TEAE, patients (patients with PFIC; PEDFIC 2, Cohort 2, n = 16): 2 (12.5) n (%)
- Moderate TEAE, patients (patients with PFIC; PEDFIC 2, Cohort 2, n = 16): 3 (18.8) n (%)
- Serious TEAEs, patients (patients with PFIC; PEDFIC 2, Cohort 2, n = 16): 1 (6.3) n (%)
- Severe TEAE, patients (patients with PFIC; PEDFIC 2, Cohort 2, n = 16): 3 (18.8) n (%)
- TEAEs leading to discontinuation, patients (patients with PFIC; PEDFIC 2, Cohort 2, n = 16): 2 (12.5) n (%)
- Any TEAE, patients (patients with PFIC; PEDFIC 2, P1O, n = 34): 28 (82.4) n (%)
- Drug-related TEAE by preferred term: Blood bilirubin increased (patients with PFIC; PEDFIC 2, P1O, n = 34): 4 (11.8) n (%)
- Drug-related TEAE by preferred term: Cough (patients with PFIC; PEDFIC 2, P1O, n = 34): 8 (23.5) n (%)
- Drug-related TEAE by preferred term: Diarrhea (patients with PFIC; PEDFIC 2, P1O, n = 34): 6 (17.6) n (%)
- Drug-related TEAE by preferred term: INR increased (patients with PFIC; PEDFIC 2, P1O, n = 34): 2 (5.9) n (%)
- Drug-related TEAE by preferred term: Pruritus (patients with PFIC; PEDFIC 2, P1O, n = 34): 4 (11.8) n (%)
- Drug-related TEAE by preferred term: Pyrexia (patients with PFIC; PEDFIC 2, P1O, n = 34): 7 (20.6) n (%)
- Drug-related TEAE by preferred term: URTI (patients with PFIC; PEDFIC 2, P1O, n = 34): 9 (26.5) n (%)
- Drug-related TEAEs, patients (patients with PFIC; PEDFIC 2, P1O, n = 34): 10 (29.4) n (%)
- Mild TEAE, patients (patients with PFIC; PEDFIC 2, P1O, n = 34): 17 (50.0) n (%)
- Moderate TEAE, patients (patients with PFIC; PEDFIC 2, P1O, n = 34): 10 (29.4) n (%)
- Serious TEAEs, patients (patients with PFIC; PEDFIC 2, P1O, n = 34): 0 n (%)
- Severe TEAE, patients (patients with PFIC; PEDFIC 2, P1O, n = 34): 1 (2.9) n (%)
- TEAEs leading to discontinuation, patients (patients with PFIC; PEDFIC 2, P1O, n = 34): 0 n (%)
- Any TEAE, patients (patients with PFIC; PEDFIC 2, P1P, n = 19): 14 (73.7) n (%)
- Drug-related TEAE by preferred term: Blood bilirubin increased (patients with PFIC; PEDFIC 2, P1P, n = 19): 2 (10.5) n (%)
- Drug-related TEAE by preferred term: Cough (patients with PFIC; PEDFIC 2, P1P, n = 19): 2 (10.5) n (%)
- Drug-related TEAE by preferred term: Diarrhea (patients with PFIC; PEDFIC 2, P1P, n = 19): 1 (5.3) n (%)
- Drug-related TEAE by preferred term: INR increased (patients with PFIC; PEDFIC 2, P1P, n = 19): 2 (10.5) n (%)
- Drug-related TEAE by preferred term: Pruritus (patients with PFIC; PEDFIC 2, P1P, n = 19): 2 (10.5) n (%)
- Drug-related TEAE by preferred term: Pyrexia (patients with PFIC; PEDFIC 2, P1P, n = 19): 4 (21.1) n (%)
- Drug-related TEAE by preferred term: URTI (patients with PFIC; PEDFIC 2, P1P, n = 19): 5 (26.3) n (%)
- Drug-related TEAEs, patients (patients with PFIC; PEDFIC 2, P1P, n = 19): 5 (26.3) n (%)
- Mild TEAE, patients (patients with PFIC; PEDFIC 2, P1P, n = 19): 6 (31.6) n (%)
- Moderate TEAE, patients (patients with PFIC; PEDFIC 2, P1P, n = 19): 7 (36.8) n (%)
- Serious TEAEs, patients (patients with PFIC; PEDFIC 2, P1P, n = 19): 3 (15.8) n (%)
- Severe TEAE, patients (patients with PFIC; PEDFIC 2, P1P, n = 19): 1 (5.3) n (%)
- TEAEs leading to discontinuation, patients (patients with PFIC; PEDFIC 2, P1P, n = 19): 1 (5.3) n (%)
- mean serum chemistry, hematology, urinalysis, international normalized ratio values (patients with PFIC; PEDFIC 2, laboratory assessments): No clinically significant changes or safety signals
- patients reporting mild/moderate TEAEs (patients with PFIC; PEDFIC 2, of 50 patients overall with any TEAE): 45 patients
- rate of discontinuations due to TEAEs (patients with PFIC; PEDFIC 2 overall): < 30
- patients overall with any TEAE (patients with PFIC; PEDFIC 2 overall (69 patients)): 50 patients
- incidence of diarrhea (patients with PFIC; PEDFIC 2 overall, 7 patients, through week 24): 10.1%
- deaths or drug-related serious TEAEs (patients with PFIC; PEDFIC 2 through week 24): no deaths or drug-related serious TEAEs occurred
- tolerability (patients with PFIC; PEDFIC 2 through week 24, 120 μg/kg/day): generally well tolerated
